Test results as given in US20200237700A1, “METHODS OF REDUCING OR PREVENTING OXIDATION OF SMALL DENSE LDL OR MEMBRANE POLYUNSATURATED FATTY ACIDS” (Amarin Pharmaceuticals Ireland Limited, priority 2015, published 2020).

Experiments:
[1] = Glucose-induced membrane lipid peroxidation (LOOH) in multilamellar vesicles, CHOD-iodide assay (Example 4); format: biochemical; details: for inhibited the peroxidative effects of glucose (LOOH formation): vs glucose alone
Experimental: Vitamin E (α-tocopherol) was also purchased from Sigma-Aldrich and prepared in ethanol at 1.0 mM (ε=3.06×10^4 M^−1 cm^−1 at 294 nm) just prior to experimental use. […] All test compounds were further diluted in ethanol or aqueous buffer as needed. Glucose was prepared in saline buffer (0.5 mM HEPES, 154 mM NaCl, pH 7.3) at 11.0 mM (200 mg/dL). CHOD-iodide color reagent (stock) was prepared, with slight modification, as described by from El-Saadani et al. (J. […] Samples were shell-dried under nitrogen gas and placed under vacuum for 1 h to remove residual solvent. […] Lipid suspensions were then vortexed for 3 min at ambient temperature to form MLVs. All MLV samples were subjected to time-dependent autoxidation by incubating at 37° C. in an uncovered, shaking water bath. This method allows lipid peroxidation to occur gradually without requiring the use of exogenous initiators. Small aliquots (5-100 μL) of each sample were removed, immediately following MLV preparation (0 hour) and after exposing samples to oxidative conditions for 72 or 96 hour, and combined with 1.0 mL of activated CHOD-iodide color reagent. Aliquot volume was reduced with each successive time point to ensure that spectrophotometric readings were within the optimal adsorption range. Test samples were covered and incubated in darkness at room temperature for at least 4 hr. Sample absorbances were then measured against a CHOD blank at 365 nm using a Beckman DU-640 spectrophotometer. The CHOD colorimetric assay is based on the oxidation of iodide (I^−) by lipid hydroperoxide (LOOH) to form triiodide (I3^−), the quantity of which is directly proportional to the amount of LOOH present in the lipid sample. The molar absorptivity (E) of I3^− is 2.46×10^4 M^−1 cm^−1 at 365 nm. […] The concentration of glucose selected was consistent with previous experimental studies of hyperglycemia under controlled laboratory conditions or observed in well-defined animal models of Type II diabetes following a glucose challenge. […] Values in FIG. 1 are mean±S.D. (N=6). EPA inhibited the peroxidative effects of glucose by 88% and 86% at 72 and 96 hours, respectively, which was highly significant (p<0.001) as compared to glucose treatment alone. […] Overall ANOVA-0 hour data: p=0.6655, F=0.4185; 72 hour data: p<0.0001, F=428.72; 96 hour data: p<0.0001, F=322.01.

[2] = system: sdLDL from plasma of healthy volunteers; experiment: Time-dependent sdLDL oxidation, MDA formation over 4 hours (Example 13); format: biochemical, human; details: each at 10 μM; 4 hours; 10 μM CuSO4
Experimental: sdLDL was isolated from the plasma of healthy volunteers by iodixanol density gradient centrifugation and adjusted to a final apolipoprotein concentration of 2 mg/mL. Sample aliquots (100 μg apolipoprotein) were incubated with EPA, DHA, or EPA+DHA (each at 10 μM) for 30 minutes at 37° C. and then treated with 10 μM CuSO4 to initiate lipid oxidation. sdLDL oxidation was measured spectrophotometrically as a function of malondialdehyde (MDA) formation at various intervals over 4 hours. Vitamin E was also tested as a positive control. Experiments were conducted in triplicate and reported as mean±SD.

[3] = system: HUVECs challenged with oxLDL; experiment: NO and ONOO− release from HUVECs pretreated with agents, then oxLDL (Example 11, Objective 1); format: cell-based, human; details: pretreated 30 min at 10 μM, then oxLDL 11 mg/dL up to 3 hr, calcium ionophore 1.0 μM
Experimental: The omega-3 fatty acid, cis-5,8,11,14,17-eicosapentaenoic acid (EPA) and docosahexaenoic acid (DHA) were purchased from Sigma-Aldrich (Saint Louis, Mo.) and solubilized in redistilled ethanol to 11 mM under nitrogen atmosphere. EPA and DHA stock solutions were stored at −20° C. until use.
Human umbilical vein endothelial cells (HUVECs) were obtained from healthy, female donors and isolated into primary, proliferating cell cultures (Clonetics, San Diego, Calif.). […] The confluent cells (4 to 5×10^5 cells/35 mm dish) were plated with minimum essential medium containing 3 mM L-arginine and 0.1 mM BH4 [(6R)-5,6,7,8-tetrahydrobiopterin]. Before experimental use, the cells (from second or third passage) were rinsed twice with Tyrode-HEPES buffer with 1.8 mM CaCl2. […]
LDL underwent oxidation following the addition of 10 μM CuSO4. […] Sample TBARS concentrations were determined spectrophotometrically by measuring sample absorbances against a standard curve derived from the hydrolysis of 1,1,3,3-tetramethoxypropane. […]
The amperometric method (with a response time of 0.1 ms) provides a quantitative signal (current) that is directly proportional to changes (from basal levels) in NO or ONOO^− concentration. […] Basal NO or ONOO^− levels were measured by differential pulse voltammetry in separate experiments. […]
NO and ONOO^− release were measured following stimulation with calcium.

SMILES: CC/C=C\C/C=C\C/C=C\C/C=C\C/C=C\CCCC(=O)O [EPA, cis-5,8,11,14,17-eicosapentaenoic acid]
- effect on LOOH formation / lipid peroxidation ([1]; 72- and 96-hour time points, 1:30 drug-to-phospholipid mole ratio, glucose): significantly inhibited LOOH formation
- inhibited the peroxidative effects of glucose (LOOH formation) ([1]; 72 hours, glucose 200 mg/dL, 1:30 drug-to-phospholipid mole ratio): 88%
- inhibited the peroxidative effects of glucose (LOOH formation) ([1]; 96 hours, glucose 200 mg/dL, 1:30 drug-to-phospholipid mole ratio): 86%
- antioxidant effects of separate treatments (LOOH formation) ([1]; each at 1.0 μM, glucose 200 mg/dL, 96 hours): potent antioxidant effects
- MDA levels [2]: 0.8 ± 0.03 µM
- reduction in sdLDL oxidation (MDA levels) [2]: 92%

SMILES: O=C(O)c1cccnc1 [niacin, nicotinic acid]
- NO/ONOO− Ratio [3]: 1.45±0.14
- NO/ONOO− Ratio ([3]; listed as Niacin): 1.45 ± 0.14
